According to patent publication US6656925B2, “Composition and method of treating arthritis” (Advanced Medical Instruments, priority 1998, dated 2003):

Key:
weakness of hind legs = experiment: Case report: 12 year old Weimaraner with weakness of hind legs (Example 3); format: in vivo, dog (Weimaraner); settings: prednisone 20 mg per day
Method: A 12 year old Weimaraner developed weakness of his hind legs which limited his ability to jump and lift his leg to urinate. […] He was then started on the new composition, of the invention, comprising zinc acetate 20 mg and glucosamine sulfate 500 mg coated with polyvinylpirrolidone 7 mg taken twice a day. […] He was then maintained on glucosamine sulfate 500 mg and zinc acetate 10 mg, twice a day for 11 months until his death.

[1] = most common adverse effect of zinc therapy; cited from earlier work
[2] = absorbed by the gastrointestinal tract, significant first-pass metabolism in the liver; cited from earlier work
osteoarthritis symptoms = settings: cited from earlier work

With C[C@]12C=CC(=O)C=C1CC[C@@H]1[C@@H]2C(=O)C[C@@]2(C)[C@H]1CC[C@]2(O)C(=O)CO [prednisone] the “response of hind leg weakness” value (weakness of hind legs) was “limited success”.

For [Zn] [zinc], the “gastrointestinal irritation, share of patients” value [1] is given as “approximately 10 % of patients”.

For N[C@H]1C(O)O[C@H](CO)[C@@H](O)[C@@H]1O (some centres unmarked) [Glucosamine], the bioavailibility [2] is listed as 26%.

For N[C@H]1C(O)O[C@H](CO)[C@@H](O)[C@@H]1O.O=S(=O)(O)O (some centres unmarked) [glucosamine sulfate], the “persistence of clinical improvement after discontinuation” value (osteoarthritis symptoms; after discontinuation) is given as “up to four weeks” and the “onset of clinical improvement of symptoms” value (osteoarthritis symptoms; after oral administration) is given as “as early as one week”.
